Reference: PMC8778091, “In Silico-Based Discovery of Natural Anthraquinones with Potential against Multidrug-Resistant E. coli” (Pharmaceuticals, 2022)
In brackets after ≈: the same amount, converted by molar mass. Where two headings read alike, the source gives them in different places.

What was measured:
[1] = molecular target: T1, E. coli gyrase B43 domain (Gyr-B) (Escherichia coli, UniProt P0AES6); experiment: biochemical; format: biochemical
T1 construct: 20 μL of the enzyme (E. coli gyrase B43 domain; 20 μM concentration); purchased Inspiralis ATPG001
Procedure: (§1) Ddl-B and Gyr-B activity assays were performed according to the manufacturer protocols (ProFoldin, Catalogue No. DDA100KE, and Inspiralis, Catalogue No. ATPG001, UK).
Gyr-B assay measured the capability of the tested compounds to hinder the ATPase activity of Gyr-B subunits. This assay links the hydrolysis of ATP by gyrase to the conversion of NADH to NAD^+, which can be measured by a change in absorbance at 340 nm. The assay reactions and detection were performed using a 96-well plate. […] First, the assay mix was prepared by mixing 20 μL of the assay buffer (50 mM Tris.HCl (pH 7.5), 1 mM EDTA, 5 mM magnesium chloride, 5 mM DTT, 10% (w/v) glycerol), 1 μL phosphoenolpyruvate (80 mM in water), 1.5 μL pyruvate kinase/lactate dehydrogenase stock, 2 μL NADH (20 mM in water), and 58.8 μL water. Thereafter, 63.3 μL of assay mix and 10 μL of the test compound solution and 20 μL of the enzyme (E. coli gyrase B43 domain; 20 μM concentration) were added into the wells and mixed by pipetting. After incubation for 10 min at 25 °C, 6.7 uL of ATP (30 mM) was added to each well. After 60 min of incubation at 25 °C, the absorbance was measured at 340 nm.

[2] = system: tested bacterial strains (E. coli MDR, MRSA, VRSA); experiment: Antibacterial evaluation, tested bacterial strains taken together; format: cell-based; details: Escherichia coli; E. coli MDR, MRSA, VRSA
Procedure: (§2) The selected top-scoring hits were evaluated for their antibacterial effect against two clinical multidrug-resistant strains of enterotoxigenic E. coli. Both isolates were isolated as clinical samples from Beni Suef general hospital, Beni Suef, Egypt. […] MRSA (ATCC 25529) and VRSA (clinical isolate from Beni Suef general hospital, Beni Suef, Egypt) were also used to further evaluate the tested compounds against resistant Gram-positive bacteria.
(§3) Minimum inhibitory concentrations for the test compounds were analyzed following the standard agar dilution method using Meuller-Hinton (MH) agar medium against different Gram-negative and positive bacteria (Table 1). Firstly, the tested compounds were prepared as a stock suspension with a 10 mg/mL final concentration in DMSO. Subsequently, the prepared stocks were diluted in 10 mL molten soft agar (0.5% agar) to obtain a concentration range from 1–64 µg/mL, then mixed and poured over a surface of MH agar (2% agar) plates and left for solidification. Finally, exponentially grown (O.D 600 nm of 0.6) test strains (Table 1) were diluted to a final density of 10^6 CFU/mL in MH broth and spotted (1 µL/spot) over the soft agar. Then, the plates were left for drying and incubated at 37 °C for 18–20 h. Controls were conducted using DMSO seeded soft agar. At the end of the experiment, the MIC for each compound was identified as the minimum concentration that inhibited the growth of the tested strain. The experiments were carried out in triplicates.

[3] = system: MRSA (ATCC 25529); experiment: MIC, agar dilution method, MRSA; format: cell-based, S. aureus; details: Staphylococcus aureus; range 1-64 µg/mL, 37 °C, 18-20 h; read-out: MIC MRSA
Procedure: as §2, §3

[4] = molecular target: T2, E. coli DAla:D-Ala ligase (Ddl-B) (Escherichia coli, UniProt P07862); experiment: Ddl-B enzymatic activity assay (inorganic phosphate, absorbance 650 nm); format: biochemical; details: for IC50: 10-1000 µM tested, read-out: IC50 Ddl-B; for Ki: read-out: Ki Ddl-B
T2 construct: purchased ProFoldin DDA100KE
Procedure: as §1
Ddl-B enzymatic activity assay is based on measuring the inorganic phosphate generated from the D-Alanine: D-Alanine ligation reaction. The inorganic phosphate is detected by absorbance at 650 nm. The assay reactions and detection were performed by using a 96-well plate. Different concentrations of the test compounds and the reference inhibitor D-cycloserine were prepared in DMSO (from 10 µM to 1000 µM). […] Thereafter, 33 μL of 10× enzyme substrate was prepared by mixing 3.3 μL of 100× enzyme substrate with 29.7 μL of water. Finally, 27 μL of the premix with 3 μL of the 10× enzyme substrate in each well were mixed. After 60 min of incubation at 37 °C, 45 μL of MPA3000 dye was added into the 30 μL of the reaction mixture. After 5 min of incubation, absorbance was measured at 650 nm.

[5] = system: E. coli (MDR) b clinical isolate; experiment: MIC, agar dilution method, E. coli MDR b; format: cell-based; details: Escherichia coli; range 1-64 µg/mL, 37 °C, 18-20 h; read-out: MIC E. coli (MDR) b
Procedure: as §2, §3

[6] = Cellular toxicity against normal fibroblasts WI-38 (MTT); format: cell-based; details: human
Procedure: All selected top-scoring compounds were tested for their cellular toxicity against human fibroblasts cell line (WI-38). Cell line (WI-38; ATCC: CCL-75) was maintained in earth RPMI 1640 medium comprising 10% heat-inactivated fetal bovine serum (FBS) and grown at 37 °C and 5% CO2. The cell line was seeded on 96-well cell culture plates (2 × 10^4 cells/well). Cells were stimulated with tested compounds at different concentrations (from 1 to 50 µM) overnight in triplicates. Doxorubicin was used as a positive control. Cell viability was assessed by MTT assay. To normalize cell viability values, each plate included a triplicate of untreated cells considered as 100% viability, and a triplicate of cells treated with a cytotoxic mixture (200 ng/mL TNF, 200 ng/mL CD95L, 200 ng/mL TRAIL, 5 μg/mL CHX, 1% (w/v) sodium azide […]) considered as 0% viability. All other viability values were normalized according to the averages of these triplicates and analyzed by the Graph Pad Prism 5 software (La Jolla, CA, USA).

[7] = system: E. coli (MDR) a clinical isolate; experiment: MIC, agar dilution method, E. coli MDR a; format: cell-based; details: Escherichia coli; range 1-64 µg/mL, 37 °C, 18-20 h; read-out: MIC E. coli (MDR) a
Procedure: as §2, §3

[8] = system: VRSA (clinical isolate); experiment: MIC, agar dilution method, VRSA; format: cell-based, S. aureus; details: Staphylococcus aureus, VRSA; range 1-64 µg/mL, 37 °C, 18-20 h; read-out: MIC VRSA
Procedure: as §2, §3

Row | SMILES | IC50 [1] [µM] | Ki [1] [µM] | MIC [2] [µg/mL] | MIC [3] [µg/mL] | Ddl-B inhibition in words [4] | IC50 [4] [µM] | Ki [4] [µM] | MIC [5] [µg/mL] | CC50 [6] [µM] | MIC [7] [µg/mL] | MIC [8] [µg/mL] | Gyr-B inhibition in words [1] | CC50 ([6]; WI-38 normal fibroblast cells, WI-38, 1 to 50 µM overnight, MTT, read-out: CC50) [µM]
1 | Cc1cc(O)c2c(c1)C(=O)c1cc(O)cc(O)c1C2=O [Emodin] | 0.81 ± 0.3 | 0.22 ± 0.1 | 2 to 4 (≈ 7.4 to 14.8 µM) | 2 (≈ 7.4 µM) | more potent | 216 ± 5.6 | 102 ± 4.8 | 2 (≈ 7.4 µM) | 49.2 ± 1.39 | 2 (≈ 7.4 µM) | 2 (≈ 7.4 µM) |  | 
2 | O=C1c2c(O)cccc2C([C@@H]2O[C@H](CO)[C@@H](O)[C@H](O)[C@H]2O)c2cc(CO)cc(O)c21 (some centres unmarked) [Aloin] | 22.4 ± 2.1 | 10.5 ± 1.6 | > 64 | > 64 | weak inhibition | 927 ± 7.4 | 529 ± 12.3 | > 64 |  | > 64 | > 64 | weak inhibition | 34.7 ± 0.94
